# Experiments:
# [1] = test system: mixed lymphocyte culture (MLC)-stimulated spleen cells; assay: Mixed lymphocyte culture (MLC), 3H-thymidine uptake; format: cell-based, mice
# Protocol: Female C57BL/6 mice, 8 weeks in age, and female BALB/c mice, 8 weeks in age were sacrificed, spleens were aseptically removed and single cell suspensions were prepared as sources of stimulating and responding cells, respectively. Prior to culture, the stimulator cells were treated with 200 µg/ml of mitomycin C for 45 minutes at 37°C, followed by three washes with PBS.
# They were established at a final concentration of 0.2 x 10^6 cells/0.2 ml of reaction mixture and cultured in microtiteration plate (Falcon, No.3040) using RPMI medium supplemented with 10% fetal bovine serum and 5 x 10^-5M 2- mercaptoethanol. The culture was continued for 120 hours and pulse-labeled with ^3H-thymidine for 24 hours before the termination of incubation. The cells were collected and radioactivity was counted.
# [2] = test system: antibody forming capacities; assay: Antibody forming capacity (PFC-SRBC) in mice immunosuppressed with cyclophosphamide; format: in vivo
# Protocol: Female BDF1 (8 weeks in age) mice were injected intraperitoneally with cyclophosphamide (22.5 mg/kg) 4 days before immunization with 5 x 10^8 SRBC. Samples were administered to mice i.p. from four days before immunization, every day for five days.
# Mouse splenic lymphocytes producing antibody against SRBC were quantitated by using Cunningham modification method described previously.
compound,measurement,setting,value
O[C@H]1[C@H]2[C@H](O)CCCN2C[C@H]1O [Swainsonine],^3H-thymidine uptake (cpm),[1]; MLC with immunosuppressive factor (3 µl) + swainsonine 0.00002 µg/well,"10,449 cpm"
same,^3H-thymidine uptake (cpm),[1]; MLC with immunosuppressive factor (3 µl) + swainsonine 0.0002 µg/well,"13,015 cpm"
same,^3H-thymidine uptake (cpm),[1]; MLC with immunosuppressive factor (3 µl) + swainsonine 0.002 µg/well,"24,951 cpm"
same,^3H-thymidine uptake (cpm),[1]; MLC with immunosuppressive factor (3 µl) + swainsonine 0.02 µg/well,"31,595 cpm"
same,^3H-thymidine uptake (cpm),[1]; MLC with immunosuppressive factor (3 µl) + swainsonine 0.2 µg/well,"27,942 cpm"
same,^3H-thymidine uptake (cpm),[1]; MLC with immunosuppressive factor (3 µl) + swainsonine 2 µg/well,"23,928 cpm"
same,^3H-thymidine uptake (cpm),[1]; MLC with immunosuppressive factor (5 µl) + swainsonine 0.00002 µg/well,"3,737 cpm"
same,^3H-thymidine uptake (cpm),[1]; MLC with immunosuppressive factor (5 µl) + swainsonine 0.0002 µg/well,"6,377 cpm"
same,^3H-thymidine uptake (cpm),[1]; MLC with immunosuppressive factor (5 µl) + swainsonine 0.002 µg/well,"10,918 cpm"
same,^3H-thymidine uptake (cpm),[1]; MLC with immunosuppressive factor (5 µl) + swainsonine 0.02 µg/well,"7,679 cpm"
same,^3H-thymidine uptake (cpm),[1]; MLC with immunosuppressive factor (5 µl) + swainsonine 0.2 µg/well,"7,928 cpm"
same,^3H-thymidine uptake (cpm),[1]; MLC with immunosuppressive factor (5 µl) + swainsonine 2 µg/well,"6,709 cpm"
same,^3H-thymidine uptake (cpm),"[1]; MLC with swainsonine 0.00002 µg/well, no immunosuppressive factor","20,653 cpm"
same,^3H-thymidine uptake (cpm),"[1]; MLC with swainsonine 0.0002 µg/well, no immunosuppressive factor","21,823 cpm"
same,^3H-thymidine uptake (cpm),"[1]; MLC with swainsonine 0.002 µg/well, no immunosuppressive factor","29,688 cpm"
same,^3H-thymidine uptake (cpm),"[1]; MLC with swainsonine 0.02 µg/well, no immunosuppressive factor","33,686 cpm"
same,^3H-thymidine uptake (cpm),"[1]; MLC with swainsonine 0.2 µg/well, no immunosuppressive factor","38,077 cpm"
same,^3H-thymidine uptake (cpm),"[1]; MLC with swainsonine 2 µg/well, no immunosuppressive factor","33,104 cpm"
same,inhibitory activity of immunosuppressive factor in MLC,[1]; immunosuppressive factor incubated with swainsonine,the inhibitory activity was removed
same,MLC-stimulated spleen cells ^3H-thymidine uptake,[1]; swainsonine added to MLC,enhanced remarkably
same,PFC-SRBC/spleen (average number of 5 mice/group),"[2]; BDF1 mice, Swainsonine 100 mg/kg i.p. alone",16.54 x 10^4 PFC-SRBC/spleen
same,PFC-SRBC/spleen (average number of 5 mice/group),[2]; Cyclophosphamide (22.5 mg/kg) + Swainsonine 3 mg/kg i.p.,21.53 x 10^4 PFC-SRBC/spleen
same,PFC-SRBC/spleen (average number of 5 mice/group),[2]; Cyclophosphamide (22.5 mg/kg) + Swainsonine 11 mg/kg i.p.,16.52 x 10^4 PFC-SRBC/spleen
same,PFC-SRBC/spleen (average number of 5 mice/group),[2]; Cyclophosphamide (22.5 mg/kg) + Swainsonine 33 mg/kg i.p.,17.19 x 10^4 PFC-SRBC/spleen
same,PFC-SRBC/spleen (average number of 5 mice/group),[2]; Cyclophosphamide (22.5 mg/kg) + Swainsonine 100 mg/kg i.p.,16.48 x 10^4 PFC-SRBC/spleen
same,capacities to produce antibody against SRBC,[2]; mice injected cyclophosphamide,restored the capacities
